Source: patent US20080114017A1, “Novel Indolopyridines, Benzofuranopyridines and Benzothienopyridines” (priority 2005, published 2008)
pIC50: −log10 of the molar value.

Experiments:
[1] = tested on: RKO human colon adenocarcinoma cells (RKO p27 subclone, uninduced); test: Alamar Blue cell viability assay, anti-proliferative/cytotoxic activity, proliferating RKO p27 cells (uninduced); assay type: cell-based; conditions: RKOp27, absence of Ponasterone A, 72 hours incubation
Experimental: The anti-proliferative/cytotoxic activity of the compounds described herein can be tested on subclones of RKO human colon adenocarcinoma cells (Schmidt et al., Oncogene 19, 2423-2429; 2000) using the Alamar Blue cell viability assay (described in O'Brien et al. Eur J Biochem 267, 5421-5426, 2000). The compounds are dissolved as 10 mM solutions in DMSO and subsequently diluted in semi-logarithmic steps. DMSO dilutions are further diluted 1:100 into Dulbecco's modified Eagle's medium (DMEM) containing 10% fetal calf serum to a final concentration twice as much as the final concentration in the test. RKO subclones are seeded into 96 well flat bottom plates at a density of 4000 cells per well in a volume of 50 μl per well. 24 hours after seeding the 50 μl each of the compound dilutions in DMEM medium are added into each well of the 96 well plate. Each compound dilution is tested as quadruplicates. Wells containing untreated control cells are filled with 50 μl DMEM medium containing 1% DMSO. The cells are then incubated with the substances for 72 hours at 37° C. in a humidified atmosphere containing 5% carbon dioxide. To determine the viability of the cells, 10 μl of an Alamar Blue solution (Biosource) are added and the fluorescence is measured at an extinction of 544 nm and an emission of 590 nm. For the calculation of the cell viability the emission value from untreated cells is set as 100% viability and the emission rates of treated cells are set in relation to the values of untreated cells. Viabilities are expressed as % values.
The corresponding IC50 values of the compounds for anti-proliferative/cytotoxic activity are determined from the concentration-effect curves.
(§1) Representative IC50 values for anti-proliferation/cytotoxicity determined in the aforementioned assays follow from the following table A, in which the numbers of the compounds correspond to the numbers of the examples.

[2] = tested on: RKO colon adenocarcinoma cells (RKOp27, induced); test: Alamar Blue cell viability assay, cell cycle specific mode of action, RKO p27 cells arrested by Ponasterone A induced p27Kip1; assay type: cell-based; conditions: Homo sapiens, cells arrested by ectopic p27Kip1 induced with 10 μM Ponasterone A, 72 hours incubation
Experimental: To determine the cell cycle specific mode of action, subclones of RKO colon adenocarcinoma cells (RKOp27 as described by Schmidt et al. in Oncogene 19, 2423-2429; 2000) are seeded into 96 well flat bottom plates at a density of 16000 cells per well in a volume of 50 μl per well in DMEM growth medium with 10% FCS containing 10 μM Ponasterone A. 24 hours after seeding the 50 μl each of the compound dilutions in DMEM medium are added into each well of the 96-well plate. Each compound dilution is tested as quadruplicates. Wells containing untreated control cells are filled with 50 μl DMEM medium containing 1% DMSO. The cells are then incubated with the substances for 72 hours at 37° C. in a humidified atmosphere containing 5% carbon dioxide. To determine the viability of the cells, 10 μl of an Alamar Blue solution (Biosource) are added and the fluorescence is measured at an extinction of 544 nm and an emission of 590 nm. For the calculation of the cell viability the emission value from untreated cells is set as 100% viability and the emission rates of treated cells are set in relation to the values of untreated cells. Viabilities are expressed as % values. Viability is compared of proliferating cells grown in the absence of the inducer Ponasterone A, versus viability of cells arrested by the expression of ectopic p27Kip1 induced by Ponasterone A.
as §1

Row | SMILES | pIC50 [2] | pIC50 [1]
1 | COC(=O)c1cccc([C@@H]2c3[nH]c4ccccc4c3C[C@H]3C(=O)N(C)C(=S)N23)c1 [Compound 5, 3-((3aS,10R)-2-Methyl-3-oxo-1-thioxo-2,3,3a,4,9,10-hexahydro-1H-2,9,10a-triaza-cyclopenta[b]fluoren-10-yl)-benzoic acid methyl ester] | < 4.00 | ≥ 5.70
2 | COC(=O)c1cc(Cl)cc([C@@H]2c3[nH]c4ccccc4c3C[C@H]3C(=O)N(C)C(=S)N23)c1 [Compound 6, 3-Chloro-5-((3aS,10R)-2-methyl-3-oxo-1-thioxo-2,3,3a,4,9,10-hexahydro-1H-2,9,10a-triaza-cyclopenta[b]fluoren-10-yl)-benzoic acid methyl ester] | < 4.00 | ≥ 5.70
3 | COC(=O)c1ccc(OC)c([C@@H]2c3[nH]c4ccccc4c3C[C@H]3C(=O)N(C)C(=S)N23)c1 [Compound 7, 4-Methoxy-3-((3aS,10R)-2-methyl-3-oxo-1-thioxo-2,3,3a,4,9,10-hexahydro-1H-2,9,10a-triaza-cyclopenta[b]fluoren-10-yl)-benzoic acid methyl ester] | < 4.00 | ≥ 5.70

Now from value to compound, other results behind:

Row | pIC50 [2] | SMILES | pIC50 [1]
4 | < 4.00 | COC(=O)c1cccc([C@@H]2c3[nH]c4ccccc4c3C[C@H]3C(=O)N(C)C(=S)N23)c1 (racemic) [Compound 4, 3-((3aSR, 10RS)-2-Methyl-3-oxo-1-thioxo-2,3,3a,4,9,10-hexahydro-1H-2,9,10a-triaza-cyclopenta[b]fluoren-10-yl)-benzoic acid methyl ester] | ≥ 5.70
5 | < 4.00 | CN1C(=O)[C@@H]2Cc3c([nH]c4ccccc34)[C@@H](c3cccc(OC(F)(F)F)c3)N2C1=S [Compound 1, (3aS,10R)-2-Methyl-1-thioxo-10-(3-trifluoromethoxy-phenyl)-1,2,3a,4,9,10-hexahydro-2,9,10a-triaza-cyclopenta[b]fluoren-3-one] | ≥ 5.70
